Laboratory results taken from patent US6566394B1, “Salicylamide derivatives” (Mercian Corporation, priority 1999, dated 2003).

What was measured:
[1] = test system: collagen-induced arthritis; test: Collagen-induced arthritis preventing effect; format: in vivo, mouse; conditions: mice, intraperitoneal 2 mg/kg or 4 mg/kg, 3 times/week, 18 times/6 weeks; FIGS. 2(A), 2(B)
Experimental: B) Collagen-induced Arthritis Preventing Effect
Type II collagen was emulsified together with an equivalent volume of Freund's complete adjuvant to prepare 1.5 mg/ml of administration solution. This was intradermally inoculated to the radicular portion of mouse tail in an amount of 0.1 ml (150 μg/mouse) to sensitize the mouse. After 3 weeks, 0.1 ml of type II collagen emulsified in the same operational manner as described was intraperitoneally administered to mouse (150 μg/mouse) to effect booster immunization to induce arthritis.
6 Animals/group of mice were intraperitoneally administered with DHM2EQ and DHM3EQ in a dosage of 2 mg/kg or 4 mg/kg 3 times/week from the day of initial immunization in a ratio of 0.1 ml/10 g of the bodyweight, in total 18 times/6 weeks. The control group (6 animals/group) was administered with 0.5% CMC solution in the same schedule as described above and to provide normal group (4 animals/group) in which no collagen arthritis was induced. The effect of inhibiting collagen-induced arthritis was evaluated by degrees of the flare, swelling and stiffening of anterior limb and posterior limb in scores of 0 to 4 (the maximum score of total for 4 limbs was 16).

NF-κB = NF-κB production inhibitory activity, luciferase reporter gene assay; format: cell-based; conditions: 3×κBTK-Luc reporter, 2 h preincubation, TNF-α (20 ng/ml) for 6 hours; FIGS. 1(A), 1(B)
Experimental: A) NF-κB Production Inhibitory Activity
The NF-κB production inhibitory activity was measured by luciferase reporter gene assay as shown below.
[Luciferase Reporter Gene Assay]
A reporter using luciferase DNA was prepared and the NF-κB production inhibitory activity was measured by use of promoter/reporter assay.
As the plasmid for luciferase assay, 3×κBTK-Luc (endowed by Dr. Junichiro INOUE of The Institute of Medical Science, The University of Tokyo) obtained by coupling luciferase gene derived from lampyrid to 3×κB derived from Igκ gene and HSV-TK promoter was used. Further, for the β-galactosidase assay, a plasmid obtained by coupling β-galactosidase gene to β-actin promoter (endowed by Dr. Junichiro INOUE of The Institute of Medical Science, The University of Tokyo) was used.
2) Transfection and Luciferase Assay
Transfection was performed by a DEAE-dextran method. […]
For 10 μl of the sample, 100 μl of a luminescent substrate solution (Tricine (20 mM), (MgCO3).4Mg(OH)2.5H2O (1.07 mM), MgSO4 (2.67 mM), EDTA (0.1 mM), DTT (33.3 mM), Coenzyme A (270 μM), luciferin (470 μM), and ATP (530 μM)) was added and amount of luminescence was quantitated by use of Lumat LB9501 (Berthold: Bad Wildbad, Germany). Further, the measured amounts were corrected by β-galactosidase assay to obtain the value of luciferase activity. […]

Row | SMILES | inhibition of collagen-induced arthritis (score of flare, swelling, stiffening of 4 limbs) [1] | concentration at which NF-κB activity was inhibited (NF-κB) [µg/mL]
1 | O=C(NC1=CC(O)C2OC2C1=O)c1ccccc1O (stereo not shown) [DHM3EQ, 5,6-epoxy-4-hydroxy-2-salicyloylamino-2-cyclohexenone] | inhibited collagen-induced arthritis | 10
2 | O=C(NC1=CC(=O)C2OC2C1O)c1ccccc1O (stereo not shown) [DHM2EQ, 5,6-epoxy-4-hydroxy-3-salicyloylamino-2-cyclohexenone] | inhibited collagen-induced arthritis | ≥ 1
